Assay results reported in patent US20260176232A1, “PROBENECID COMPOUNDS FOR THE TREATMENT OF INFLAMMASOME-MEDIATED DERMATOLOGICAL CONDITIONS” (Bacainn Biotherapeutics, Ltd., priority 2022, published 2026).

Tests used:
[1] = system: NLRP1-mediated inflammasome activity; experiment: IC50 curve, L18-MDP-induced IL-1β secretion in LPS-primed immortalized BMDMs; format: cell-based, murine; conditions: L18-MDP 100 μg/mL; drug 3.9-350 μM; FIG. 4B; read-out: half maximal inhibitory concentration (IC50), NLRP1-mediated inflammasome activity
Experimental: FIGS. 4A and 4B are charts showing inflammasome activity as determined by measuring secreted IL-1β concentrations in murine immortalized BMDMs pre-activated with lipopolysaccharide (LPS; 100 ng/mL) for 3 h. The macrophages were stimulated with either the NLRP3 activator, nigericin (3 μM) (FIG. 4A) or the NLRP1 agonist L18-MDP (100 μg/mL) (FIG. 4B) and treated or not with BT032 (3.9-350 μM). […] BT032 versus normalized responses (variable slope).

[2] = system: non-canonical inflammasome; experiment: IL-1β secretion in macrophages challenged with LPS (B4) (FIG. 4C); format: cell-based, human; conditions: BT032 20, 100 μM; Pam3Cys priming; LPS 0111:B4 16 h
Text: In vitro stimulation of human macrophages.

NLRP1 inflammasome = experiment: L18-MDP-induced IL-1β secretion in WT or NLRP3-/- immortalized BMDMs (FIG. 8); format: cell-based, murine; conditions: 20, 50, 100, 350 μM
Text: In vitro stimulation of murine macrophages.

[3] = system: lesional skin from patients with psoriasis; experiment: Psoriasis-related gene expression in psoriatic lesion biopsy specimens ex vivo; format: cell-based, human; conditions: 500 ng/mL, 12 hours
Experimental: Human samples. Biopsy specimens of psoriatic lesions are obtained from about 10 patients after obtaining informed consent. Two adjacent biopsy specimens are taken from each patient. All specimens are cut at the upper dermis, and the epidermal side is used for the experiment. As a medium, HuMedia-KB2 (Kurabo) containing insulin, human epidermal growth factor, bovine pituitary extract, and gentamicin/amphotericin B is used, according to the manufacturer's protocol. One specimen is cultured with vehicle (DMSO), and the adjacent one was cultured with BT032 (500 ng/mL) for 12 hours.
RNA isolation and the quantitative RT-PCR analysis. Total RNA is isolated using Trizol (Invitrogen, Carlsbad, CA) or RNeasy kits (Qiagen, PL Venlo, Netherlands) according to the manufacturer's protocol. Complementary DNA is reverse transcribed using a Prime Script RT reagent kit (Takara Bio, Shiga, Japan). The quantitative RT-PCR is performed by monitoring the synthesis of double-stranded DNA during the various PCR cycles with SYBR Green I (Roche, Basel, Switzerland) and the LightCycler real-time PCR apparatus (Roche), according to the manufacturer's instructions. All primers are obtained from Greiner Japan (Tokyo, Japan).

[4] = system: T1, ASC speck formation (inflammasome complex); experiment: Nigericin-induced ASC speck formation in ASC-cerulean/NLRP3 macrophages; format: cell-based; conditions: 350 μM, 60 mins before nigericin 3 μM 90 mins; about 20% of cells with nigericin alone
T1 construct: Flag; expressed in transfected cells; host or cells: NLRP3-deficient immortalized BMDMs
T1 sequence (Q96P20 whole entry, one chain of several): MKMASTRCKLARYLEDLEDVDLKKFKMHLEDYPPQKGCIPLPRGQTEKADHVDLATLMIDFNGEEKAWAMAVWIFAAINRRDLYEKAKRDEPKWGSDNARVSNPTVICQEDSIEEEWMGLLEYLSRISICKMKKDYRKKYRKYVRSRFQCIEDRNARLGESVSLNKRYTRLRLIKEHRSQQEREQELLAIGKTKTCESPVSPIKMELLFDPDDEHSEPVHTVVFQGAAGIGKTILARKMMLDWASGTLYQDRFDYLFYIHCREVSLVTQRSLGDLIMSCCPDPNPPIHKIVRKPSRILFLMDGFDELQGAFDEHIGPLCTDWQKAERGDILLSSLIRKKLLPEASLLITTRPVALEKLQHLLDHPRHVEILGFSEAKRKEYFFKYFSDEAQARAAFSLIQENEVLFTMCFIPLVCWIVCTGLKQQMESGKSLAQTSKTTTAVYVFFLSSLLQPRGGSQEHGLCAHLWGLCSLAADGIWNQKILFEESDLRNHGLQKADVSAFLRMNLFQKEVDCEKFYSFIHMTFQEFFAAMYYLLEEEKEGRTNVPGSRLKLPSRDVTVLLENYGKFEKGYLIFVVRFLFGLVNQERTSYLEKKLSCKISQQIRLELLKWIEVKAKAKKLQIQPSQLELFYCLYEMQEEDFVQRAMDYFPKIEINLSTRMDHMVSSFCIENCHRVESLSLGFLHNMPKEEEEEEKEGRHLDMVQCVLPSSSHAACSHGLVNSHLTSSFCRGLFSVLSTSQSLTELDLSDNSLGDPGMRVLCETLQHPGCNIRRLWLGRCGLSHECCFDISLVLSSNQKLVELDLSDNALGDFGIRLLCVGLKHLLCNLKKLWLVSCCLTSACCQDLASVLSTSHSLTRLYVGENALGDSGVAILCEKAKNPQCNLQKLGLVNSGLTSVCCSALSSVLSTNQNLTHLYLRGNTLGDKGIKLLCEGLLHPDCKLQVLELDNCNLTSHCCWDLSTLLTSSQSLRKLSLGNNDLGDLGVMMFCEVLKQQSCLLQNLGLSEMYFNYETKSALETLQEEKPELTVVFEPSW
Experimental: FIGS. 5B-5D are pictures showing the ability of probenecid analogs of the present technology (e.g., BT032) to inhibit the formation of the inflammasome complex following NLRP3 activation. NLRP3-deficient immortalized BMDMs reconstituted with ASC-cerulean (pseudocolor RED) and NLRP3-Flag were either not stimulated (FIG. 5B) or stimulated with NLRP3 agonist nigericin (3 μM) for 90 mins (FIG. 5C). ASC-cerulean macrophages were also pretreated with BT032 (350 μM) for 60 mins prior to nigericin challenge (FIG. 5D). Macrophages were fixed with 4% paraformaldehyde and imaged for the formation of inflammasome specks as identified by intense, punctate staining in the cytosol of cells. Cell nuclei were stained with DAP (4′,6′-diamindino-2-phenylindole; BLUE). Representative images shown are maximum intensity projections of 3D deconvoluted z stacks using ImageJ.
FIG. 5E is a chart showing the number of ASC specks detected per field (6-7 fields per sample) compared to the total number of cells/field as determined by staining nuclei. Data is represented as a percentage of ASC-specks per field of view for each treatment group as outlined in FIGS. 5B-5D.
Methods. […] ASC-cerulean specks were counted for each field and as percentage of specks per field and represented as a percentage of total Hoechst positive cells.

[5] = system: anisomycin-induced psoriatic dermatitis; experiment: Anisomycin-induced psoriatic dermatitis, topical treatment of murine ear; parameters: species or system C57BL/6 mice; conditions: mouse, in vivo
Text: Psoriasis is a chronic inflammatory skin disease characterized by IL-17-mediated immune responses, and p38 is known to be highly activated in the psoriatic epidermis. In this example, a p38 activator, anisomycin, is applied daily to murine skin. The probenecid analogs of the present technology (e.g., BT032) are applied to murine psoriatic models topically or to human psoriatic skin specimens ex vivo. Mice. Eight- to 12-week old female mice are used in this study. All animals are of the C57BL/6 genetic background. Animals are maintained under specific pathogen-free conditions. Anisomycin treatment. Anisomycin solution (2 mg/mL in 99.5% ethanol) is applied to the inner and outer sides of a murine ear once daily at a dosage of 10 μL per side of the ear. Histological analyses. For histologic examination, ear skin samples are fixed with 10% formalin and embedded in paraffin. Sections along the median plane of the ear with a thickness of 5 μm are prepared and subjected to staining with hematoxylin and eosin (H&E). Images of two consecutive microscopic fields of H&E-stained sections are obtained using a digital microscope. Time course changes in ear thickness are measured. Thickness is measured daily before treatment.

CCCN(CCC)S(=O)(=O)c1ccc(-c2ccc(CCCC(=O)O)cc2)cc1 [BT032, 4-(4′-(N,N-dipropylsulfamoyl)-[1,1′-biphenyl]-4-yl)butanoic acid]
IC50 [1]: 30 µM | non-canonical inflammasome activity (LPS (B4)) [2]: limited impact | NLRP1 (L18-MDP)-induced inflammasome activation as measured by IL-1β secretion (NLRP1 inflammasome; NLRP3-/- macrophages): dose-dependently inhibited | NLRP1 (L18-MDP)-induced inflammasome activation as measured by IL-1β secretion (NLRP1 inflammasome; WT macrophages): dose-dependently inhibited | expression levels of IL1B, IL6, IL23A, IL17A versus control specimens [3]: lower expression levels | ASC specks in cells [4]: substantially reduced ASC specks | ear thickness, scaly erythema, and histologic changes induced by anisomycin [5]: attenuated
